Values quoted from earlier work in publication PMC9410468 (Marine Drugs, 2022).

Tested on: rats
Details: rats; selective α3β4 nAChR antagonists; cited from earlier work
Excerpt: In the mammalian brain, the medial habenula (MHB) expresses high nAChR levels. Recently, α3-containing nAChRs present in the medial habenula have attracted substantial attention because of their potential role in influencing nicotine addiction. In addition, recent studies have shown that the gene polymorphism of the α3 and β4 subunits in vivo are related to nicotine addiction and drug abuse. The α3β4 nAChR subtype is mainly located in the MHB, […] (IPN), and fasciculus retroflexus (FR) of the rat brain. In addition, it is also expres ...

COCC[C@H]1CC2CN3CCc4c([nH]c5ccccc45)[C@](C(=O)OC)(C2)[C@H]13 [18-methoxycoronaridine (18-MC), 18-methoxycoronaridine]
effect on nicotine self-administration (in words): reduce nicotine self-administration in rats
